The source made the active and inactive calls. The calls are words filed in the database; no cut-off is given here.
Assays:
[1] = biological target: T1, CDGSH iron-sulfur domain-containing protein 2 (Homo sapiens) (UniProt Q8N5K1); experiment: Binding affinity to NAF1 (unknown origin) expressed in human HepG2 cells assessed as inhibition of mitochondrial respiration at 30 uM; assay type: cell-based
T1 sequence (whole entry): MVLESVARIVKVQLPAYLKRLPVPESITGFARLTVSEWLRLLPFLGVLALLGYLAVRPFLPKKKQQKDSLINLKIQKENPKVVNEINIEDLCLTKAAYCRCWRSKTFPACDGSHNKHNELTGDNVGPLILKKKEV

[2] = biological target: T2, CDGSH iron-sulfur domain-containing protein 2 (Homo sapiens, UniProt Q8N5K1); experiment: Binding affinity to recombinant human N-terminal His6-tagged NAF1 expressed in Escherichia coli by scintillation proximity assay
T2 sequence (Q8N5K1 whole entry): T1 sequence (whole entry)

[3] = biological target: T1, CDGSH iron-sulfur domain-containing protein 2 (Homo sapiens); experiment: Binding affinity to NAF1 in human HepG2 cells assessed as inhibition of mitochondrial respiration at 30 uM; assay type: cell-based
[4] = biological target: T1, CDGSH iron-sulfur domain-containing protein 2 (Homo sapiens); experiment: Binding affinity to NAF1 (unknown origin) expressed in human HepG2 cells assessed as increase in mitochondrial respiration at 30 uM relative to wild-type cells; assay type: cell-based

| SMILES | inhibition [1] | IC50 [2] | inhibition [3] | Activity [4] |
| --- | --- | --- | --- | --- |
| CC(C)(C)c1cc(CC2SC(=O)N=C2O)cc(C(C)(C)C)c1O (stereo not given) | Active | 29.8 µM | Active |  |
| CCc1ccc(CCOc2ccc(CC3SC(=O)NC3=O)cc2)nc1 (stereo not given) [PIOGLITAZONE] | Active | 4.8 µM | Active | 13% |
| CN(CCOc1ccc(CC2SC(=O)NC2=O)cc1)c1ccccn1 (stereo not given) [ROSIGLITAZONE] | Active | 2.29 µM | Active |  |
